Assay results reported in PMC9866218, “Characterization and Chemical Synthesis of Cm39 (α-KTx 4.8): A Scorpion Toxin That Inhibits Voltage-Gated K^+ Channel KV1.2 and Small- and Intermediate-Conductance Ca^2+-Activated K^+ Channels KCa2.2 and KCa3.1” (Toxins, 2023).
Entries after “also recorded” stand apart in the source; their conditions may differ.

Experiments:
[1] = system: hKV1.3; assay type: cell-based, human
Text: (§1) We, therefore, aimed at testing the pharmacological activity of sCm39 on a battery of various potassium and sodium ion channels. Among the tested channels were six members of human voltage-gated K^+ (hKV) channels from Shaker family, hKV1.1-hKV1.6 (Figure 3A–F) and three members of Ca^2+-activated potassium channel; hKCa2.2 (SK2, Figure 3I), the small-conductance Ca^2+-activated channel; hKCa3.1 (IKCa1, SK4. Figure 3J), the intermediate-conductance Ca^2+-activated channel expressed in T lymphocytes; and mKCa1.1 (BK, Slo1, MaxiK, Figure 3H), the large-conductance voltage- and Ca^2+-activated channel of mice. In addition, we also screened the effect of Cm39 on hKV11.1 (hERG1, Figure 3G), a voltage-gated cardiac K^+ channel, and two human voltage-gated sodium (hNaV) channels, hNaV1.4 (Figure 3K) and hNaV1.5 (Figure 3L), expressed in skeletal and cardiac muscles, respectively. These ion channels were heterologously expressed in the CHO or HEK cell lines except for KV1.3. Human peripheral T lymphocytes. They were stimulated with Phytohemagglutinin A (PHA) to increase the KV1.3 channel expression, and Ca^2+-free intracellular solution was used to avoid KCa3.1 channel activation. Appropriate depolarization protocols were used to record ionic currents in voltage-clamped cells (see Figure 3 insets and Material and Methods for details). Freshly dissolved sCm39 in extracellular solution was applied at 1 µM concentration on the cell using a custom-built micro-perfusion system at ~200 µL/min flow rate.
For the measurement of KV1.x, mKCa1.1 and NaV1.x currents the extracellular solution was composed of (in mM) 145 NaCl, 5 KCl, 2.5 CaCl2, 1 MgCl2, 10 HEPES and 5.5 glucose, pH 7.35. In the HK-150 and Na^+-free bath solution bath all Na^+ was substituted by K^+ or Choline-Cl, respectively, other ingredients remained unchanged. […]
Whole-cell currents were recorded in voltage-clamped cells following standard protocols by using a Multiclamp 700B amplifier connected to a computer with Axon Digidata1440 digitizer and for data acquisition, Clampex 10.7 software was used (Molecular Devices).

[2] = system: hKV11.1; assay: Whole-cell patch-clamp, block of KV11.1 (hERG1) current; assay type: cell-based, human; conditions: HEK 293 cells
Text: as §1, with “They were stimulated with Phytohemagglutinin A (PHA) to increase the KV1.3 channel expression, and Ca^2+-free intracellular solution was used to avoid KCa3.1 channel activation. Appropriate depolarization protocols were used to record ionic currents in voltage-clamped cells (see Figure 3 insets and Material and Methods for details). Freshly dissolved sCm39 in extracellular solution was applied at 1 µM concentration on the cell using a custom-built micro-perfusion system at ~200 µL/min flow rate.” left out
(§2) Whole-cell currents were recorded in voltage-clamped cells following standard protocols by using a Multiclamp 700B amplifier connected to a computer with Axon Digidata1440 digitizer and for data acquisition, Clampex 10.7 software was used (Molecular Devices). […]

[3] = system: hNaV1.4; assay: Whole-cell patch-clamp, block of NaV1.4 current; assay type: cell-based, human; conditions: HEK 293 cells
Text: as §1, with “They were stimulated with Phytohemagglutinin A (PHA) to increase the KV1.3 channel expression, and Ca^2+-free intracellular solution was used to avoid KCa3.1 channel activation. Appropriate depolarization protocols were used to record ionic currents in voltage-clamped cells (see Figure 3 insets and Material and Methods for details). Freshly dissolved sCm39 in extracellular solution was applied at 1 µM concentration on the cell using a custom-built micro-perfusion system at ~200 µL/min flow rate.” left out
as §2

[4] = system: mKCa1.1; assay type: cell-based, mice; conditions: HEK 293 cells
Text: as §1, with “rate. […]” for “rate.”
as §2

Question: `CC[C@H](C)[C@@H]1NC(=O)[C@H](C)NC(=O)[C@H](C)NC(=O)[C@H](CCCCN)NC(=O)[C@@H]2CSSC[C@@H](C(=O)N[C@@H](Cc3ccc(O)cc3)C(=O)N[C@@H](Cc3ccc(O)cc3)C(=O)O)NC(=O)[C@H](CCCCN)NC(=O)[C@@H]3CSSC[C@H](NC(=O)[C@H](CCC(=O)O)NC(=O)[C@H](CO)NC(=O)[C@H](CO)NC(=O)[C@H](CO)NC(=O)[C@H](CCCCN)NC(=O)[C@@H](NC(=O)[C@H](CCCCN)NC(=O)[C@H](Cc4c[nH]cn4)NC(=O)[C@H](CC(N)=O)NC(=O)[C@@H](NC(=O)[C@H](Cc4ccccc4)NC(=O)[C@@H](N)[C@@H](C)O)[C@@H](C)CC)CSSC[C@H](NC(=O)[C@H](CCCCN)NC(=O)CNC(=O)[C@H](CO)NC(=O)[C@H](C)NC(=O)[C@H](CCCNC(=N)N)NC(=O)CNC1=O)C(=O)N[C@@H]([C@@H](C)CC)C(=O)N[C@@H](CC(N)=O)C(=O)N[C@@H](CO)C(=O)N[C@@H]([C@@H](C)O)C(=O)N3)C(=O)N[C@@H](CC(C)C)C(=O)N1CCC[C@H]1C(=O)N[C@@H](C)C(=O)N2` [Cm39] was tested. Which decrease in current ([1]; 1 µM, PHA-activated human peripheral T lymphocytes, 3−5 min, n = 3−5) did it give?
Answer: The decrease in current was under 3%.

Question: And the “inhibition (in words)” value ([1]; 1 μM, human peripheral T lymphocytes)?
Answer: The value was “does not inhibit; also recorded: did not show any effect”.

Question: And the “inhibition (in words)” value ([2]; 1 μM)?
Answer: The value was “does not inhibit; also recorded: did not show any effect”.

Question: And the decrease in current ([2]; 1 µM, 3−5 min, n = 3−5)?
Answer: The decrease in current was under 3%.

Question: What about the “inhibition (in words)” value ([3]; 1 μM) of the same compound?
Answer: Its value is “does not inhibit; also recorded: did not show any effect”.

Question: And the decrease in current ([3]; 1 µM, 3−5 min, n = 3−5)?
Answer: The decrease in current was under 3%.

Question: What about the “inhibition (in words)” value ([4]; 1 μM) of the same compound?
Answer: The value was “does not inhibit; also recorded: did not show any effect”.

Question: And the decrease in current ([4]; 1 µM, 3−5 min, n = 3−5)?
Answer: The decrease in current was under 3%.
